The values below come from PMC4822341 (Cell Discovery, 2015).

Several values for one entry are separate records, joined by “and”; a condition that tells them apart may be missing. Identical values can stand only once.

The nature of data set [1]: Bone density (μCT) and biomechanics testing of femurs. The format is in vivo, DBA/1 mice. The following applies: 2 weeks; for cortical bone thickness of femurs: μCT. How it is done:
Femur bones were collected and scanned by μCT (Skyscan 1172 uCT) for quantification of trabecular and cortical bone parameters. The thresholds for μCT quantification of trabecular and cortical bone parameters were set at 80–100 and 100–110, respectively. μCT analyses of cortical bone parameters were performed on 100-μCT slices (1 mm total) from the middle shaft of femurs; trabecular parameters were assessed in 100-μCT slices (1 mm total) immediately below the distal growth plate of the femur. Following uCT scans, the femurs were individually tested on a TestResources 570 Force Transducer. Bones were thawed in PBS before being tested, to ensure no brittleness was due to freezing. […] Data points were collected at a frequency of 50 Hz and a deflection rate of 0.005 mm s^–1.

A further data set has as its target T1, PR (Homo sapiens, UniProt P06401).
T1 construct: expressed in transfected cells; host or cells: AD293
T1 sequence (P06401 1-933): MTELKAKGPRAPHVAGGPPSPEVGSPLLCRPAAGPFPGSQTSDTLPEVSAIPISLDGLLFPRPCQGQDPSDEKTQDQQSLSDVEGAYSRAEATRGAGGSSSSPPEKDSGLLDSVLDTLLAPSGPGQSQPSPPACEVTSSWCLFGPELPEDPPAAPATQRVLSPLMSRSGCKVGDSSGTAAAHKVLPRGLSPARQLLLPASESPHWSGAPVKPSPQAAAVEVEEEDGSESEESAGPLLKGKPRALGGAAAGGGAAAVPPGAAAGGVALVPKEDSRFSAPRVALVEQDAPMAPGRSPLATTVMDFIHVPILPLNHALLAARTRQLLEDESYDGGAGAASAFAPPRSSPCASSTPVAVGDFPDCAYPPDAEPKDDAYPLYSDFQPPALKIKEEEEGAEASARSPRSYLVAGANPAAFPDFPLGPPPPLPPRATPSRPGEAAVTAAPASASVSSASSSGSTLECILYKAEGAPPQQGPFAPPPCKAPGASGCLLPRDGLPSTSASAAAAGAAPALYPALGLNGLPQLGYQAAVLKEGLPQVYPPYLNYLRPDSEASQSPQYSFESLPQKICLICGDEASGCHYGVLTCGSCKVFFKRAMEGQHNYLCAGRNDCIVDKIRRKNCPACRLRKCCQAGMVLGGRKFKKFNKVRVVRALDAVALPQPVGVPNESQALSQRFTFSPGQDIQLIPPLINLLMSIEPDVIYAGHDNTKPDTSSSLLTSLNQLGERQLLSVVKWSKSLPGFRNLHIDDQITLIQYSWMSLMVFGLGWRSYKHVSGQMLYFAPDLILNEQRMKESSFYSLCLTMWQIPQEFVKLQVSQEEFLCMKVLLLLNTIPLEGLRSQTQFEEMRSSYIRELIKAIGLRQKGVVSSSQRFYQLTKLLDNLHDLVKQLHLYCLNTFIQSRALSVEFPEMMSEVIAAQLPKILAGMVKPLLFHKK
The experiment in a line: PR reporter assay (off-target activity). The format is cell-based. The following applies: steroid 1 μM; percent of 1 μM progesterone. On the procedure: Similar to previous reports, for induction 100 ng pHHLuc (MMTV-Luc) plasmid, 0.1 ng pRShGR together with 5 ng phRGtkRenilla were transfected by X-tremeGENE 9 (Roche) into AD293 cells per well in 24-well plate. For transrepression, 10 ng AP-1-Luc or 10ng pNF-κB-luc, 100 ng pRShGR and 5 ng phRGtkRenilla were transfected into AD293 cells per well. We used the same transfection protocol for the MR and PR assays, except of the use of 0.1 ng MR or PR plasmid to substitute GR. One day after transfection, for induction, cells were directly treated by steroids for 16 h; for repression, cells were treated with either PMA at 0.6 ng ml^–1 (for AP-1 reporter) or TNFα at 2 ng ml^–1 (for NF-κB reporter), together with various steroids. Cells were collected by addition of 1× Passive Lysis Buffer (Promega, Madison, WI, USA), and luciferase activity was assayed by the Dual-Glo Luciferase system (Promega). Data were plotted as firefly luciferase activity normalized to Renilla luciferase activity in Relative Luciferase Units.
In general terms: In a reporter assay the amount or activity of a reporter protein is the signal.

The next data set relates to OVA-induced asthma. As to the kind of experiment: OVA-induced mouse asthma model. As to conditions: for % repression of AHR: ACH challenge 4 mg kg^-1. The format is in vivo, Balb/c mice. On the procedure: As described before, 7–9-week-old female Balb/c mice (Taconic) were sensitized on days 0, 7 and 14 by i.p. injection of 50 μg OVA/1 mg alum in a total of 200 μl saline. Control mice received an equal volume of alum only. Mice were lightly anesthetized by isoflurane inhalation and challenged with intranasal OVA (100 μg in 30 μl saline) or saline on days 21–23, and were i.p. injected with different steroids. Twenty-four hours after the last challenge and treatment, pulmonary resistance was measured in response to a range of concentrations of intravenous acetylcholine using the forced oscillation technique with the FlexiVent system (SCIREQ) as previously described. Serum samples were analyzed for OVA-specific IgE using an ELISA (BD Biosciences, clone R35-118). Total and differential cell counts were determined by hemocytometer and by light microscopic evaluation of more than 300 cells per slide as previously described. After lavage, lungs were inflated with 10% buffered formalin to 25 cm H2O and transferred to 10% buffered formalin. Sections (5 μm) were stained with H&E for semi-quantitative assessment of inflammation and PAS for evaluation of mucus production. To quantify inflammation, H&E-stained lung sections were de-identified for blinding and scored for peribronchial and perivascular inflammatory cell infiltration: grade 0, no infiltration; grade 1, <25% of examined area; grade 2, 25–50%; grade 3, 51–75%; and grade 4, >75%. To quantify goblet cell hyperplasia, PAS stained lung sections were de-identified for blinding and scored for the percentage of PAS positive cells among airway epithelial cells: grade 0: none; grade 1 <25% of airway epithelial cells; grade 2, 25–50%; grade 3, 51–75%; and grade 4, >75%.

Regarding `CON(C)C(=O)C1(OC(=O)c2ccco2)C(C)CC2C3CC(F)C4=Cc5c(cnn5-c5ccccc5)CC4(C)C3(F)C(O)CC21C` (stereo not shown) [VSGC12], the “bone strength (stiffness) of femurs” value in data set [1] (0.0625 mg kg^-1 daily) and in data set [1] (0.25 mg kg^-1 daily) was “no longer caused damage to bone strength” throughout. Further, the “cortical bone thickness of femurs” value in data set [1] (0.0625 mg kg^-1 daily) is “did not cause a significant decrease compared with vehicle treatment”; in data set [1] (0.25 mg kg^-1 daily), “only caused a mild decrease”. Further, on PR, the PR activity result is “higher activity than VSG22, but a lower activity than MF, FF and FP”. Moreover, the “% repression of total differentiated cells” value with OVA-induced asthma (0.0625 mg/kg) was 37%; in the data set on OVA-induced asthma (0.125 mg/kg), 60%; in the data set on OVA-induced asthma (0.25 mg/kg), 88%; in the data set on OVA-induced asthma (1 mg/kg, saline 100, OVA+DMSO 0), 99%. Further, the “% repression of AHR” value was 50% in the data set on OVA-induced asthma (0.0625 mg/kg); > 95% and 95% in the data set on OVA-induced asthma (0.25 mg/kg); 98% in the data set with OVA-induced asthma (1 mg/kg, OVA+DMSO 0, saline 100). Also, the “histology score (hematoxylin and eosin and PAS staining)” value with OVA-induced asthma (0.25 mg kg^-1) is “much lower score than 0.25 mg kg^–1 FF in both hematoxylin and eosin and PAS staining”. In the data set on OVA-induced asthma (1 mg kg^-1 i.p.), the “infiltration of immune responsive cells into the lungs (total and differential cell count)” value is “strongly repressed the infiltration of immune responsive cells into the lungs”. For the same molecule, in the data set with OVA-induced asthma (1 mg kg^-1 i.p., Balb/c mice), the “repression of airway hyper-responsiveness (AHR)” value is on record as “robustly repressed AHR to the basal level”. For the same molecule, the “histology score, PAS staining” value with OVA-induced asthma (1 mg kg^-1 i.p., grade 0-4) is 0.25. Moreover, in the data set on OVA-induced asthma (1 mg kg^-1 i.p., grade 0-4), the “histology score, hematoxylin and eosin staining” value is recorded as “almost zero”. Further, the “minimal dose to effectively repress AHR (minimal effective dose)” value in the data set on OVA-induced asthma (AHR repression >50%, i.p.) was 0.0625 mg kg^–1. Besides, in the data set with OVA-induced asthma (lower doses (0.25, 0.125, 0.0625 mg kg^-1)), the OVA-IgE levels result is given as “unexpectedly higher than the vehicle control”.
